Laboratory results from ChEMBL document CHEMBL3885881, “DrugMatrix”.

Species: Rattus norvegicus
Assay: DrugMatrix - Regimen: Daily Repeat
Assay type: toxicity, organism-based, Sprague-Dawley
Parameters: regimen Daily Repeat, gender Male, age 6-8 weeks
Conditions: in vivo, po, route oral GAVAGE, vehicle .5 % CMC; for BASOPHIL / EOSINOPHIL / ERYTHROCYTE COUNT / HEMATOCRIT / HEMOGLOBIN / LEUKOCYTE COUNT / LYMPHOCYTE / MEAN CORPUSCULAR HEMOGLOBIN / MEAN CORPUSCULAR HEMOGLOBIN CONCENTRATION / MEAN CORPUSCULAR VOLUME / MONOCYTE / NEUTROPHIL / PLATELET COUNT: tissue Blood; for ALANINE AMINOTRANSFERASE / ALBUMIN / ALKALINE PHOSPHATASE / ASPARTATE AMINOTRANSFERASE / BLOOD UREA NITROGEN / CHLORIDE / CHOLESTEROL / CREATINE PHOSPHOKINASE / CREATININE / GLUCOSE / PHOSPHORUS / POTASSIUM / SODIUM / TOTAL BILIRUBIN / TOTAL PROTEIN: tissue Plasma
[1] = 0 mg/kg, 72 h, dose level Control, time 3 day
[2] = 0 mg/kg, 120 h, dose level Control, time 5 day
[3] = 750 mg/kg, 72 h, dose level Low, time 3 day

NCC(=O)O [GLYCINE]
BASOPHIL [1]: 0% | EOSINOPHIL [1]: 0% | ERYTHROCYTE COUNT [1]: 6.34 x10E6/uL | HEMATOCRIT [1]: 37.62% | HEMOGLOBIN [1]: 14.82 G/DL | LEUKOCYTE COUNT [1]: 11.18 x10E3/uL | LYMPHOCYTE [1]: 87.5% | MEAN CORPUSCULAR HEMOGLOBIN [1]: 23.48 pg | MEAN CORPUSCULAR HEMOGLOBIN CONCENTRATION [1]: 39.5 G/DL | MEAN CORPUSCULAR VOLUME [1]: 59.45 fL | MONOCYTE [1]: 1.67% | NEUTROPHIL [1]: 10.83% | PLATELET COUNT [1]: 1074.83 x10E3/uL | ALANINE AMINOTRANSFERASE [1]: 36.5 u/L | ALBUMIN [1]: 3.9 G/DL | ALKALINE PHOSPHATASE [1]: 370.17 u/L | ASPARTATE AMINOTRANSFERASE [1]: 63.17 u/L | BLOOD UREA NITROGEN [1]: 16.83 mg/dL | CHLORIDE [1]: 99.33 MEQ/L | CHOLESTEROL [1]: 64.33 mg/dL | CREATINE PHOSPHOKINASE [1]: 127 u/L | CREATININE [1]: 0.55 mg/dL | GLUCOSE [1]: 173.5 mg/dL | PHOSPHORUS [1]: 10.08 mg/dL | POTASSIUM [1]: 6.23 MEQ/L | SODIUM [1]: 143.5 MEQ/L | TOTAL BILIRUBIN [1]: 0.52 mg/dL | TOTAL PROTEIN [1]: 6.35 G/DL | BASOPHIL [2]: 0% | EOSINOPHIL [2]: 0.17% | ERYTHROCYTE COUNT [2]: 6.12 x10E6/uL | HEMATOCRIT [2]: 37.08% | HEMOGLOBIN [2]: 14.82 G/DL | LEUKOCYTE COUNT [2]: 11.87 x10E3/uL | LYMPHOCYTE [2]: 83.33% | MEAN CORPUSCULAR HEMOGLOBIN [2]: 24.25 pg | MEAN CORPUSCULAR HEMOGLOBIN CONCENTRATION [2]: 39.97 G/DL | MEAN CORPUSCULAR VOLUME [2]: 60.65 fL | MONOCYTE [2]: 1.5% | NEUTROPHIL [2]: 15% | PLATELET COUNT [2]: 1042.83 x10E3/uL | ALANINE AMINOTRANSFERASE [2]: 46 u/L | ALBUMIN [2]: 3.82 G/DL | ALKALINE PHOSPHATASE [2]: 369.5 u/L | ASPARTATE AMINOTRANSFERASE [2]: 65 u/L | BLOOD UREA NITROGEN [2]: 16.33 mg/dL | CHLORIDE [2]: 100.67 MEQ/L | CHOLESTEROL [2]: 57.17 mg/dL | CREATINE PHOSPHOKINASE [2]: 130 u/L | CREATININE [2]: 0.53 mg/dL | GLUCOSE [2]: 163.33 mg/dL | PHOSPHORUS [2]: 9.53 mg/dL | POTASSIUM [2]: 6.27 MEQ/L | SODIUM [2]: 144.83 MEQ/L | TOTAL BILIRUBIN [2]: 0.55 mg/dL | TOTAL PROTEIN [2]: 6.32 G/DL | BASOPHIL [3]: 0% | EOSINOPHIL [3]: 0% | ERYTHROCYTE COUNT [3]: 6.2 x10E6/uL | HEMATOCRIT [3]: 37.37% | HEMOGLOBIN [3]: 14.17 G/DL | LEUKOCYTE COUNT [3]: 11.6 x10E3/uL | LYMPHOCYTE [3]: 90% | MEAN CORPUSCULAR HEMOGLOBIN [3]: 22.83 pg | MEAN CORPUSCULAR HEMOGLOBIN CONCENTRATION [3]: 37.97 G/DL | MEAN CORPUSCULAR VOLUME [3]: 60.17 fL | MONOCYTE [3]: 0% | NEUTROPHIL [3]: 10% | PLATELET COUNT [3]: 1191.67 x10E3/uL | ALANINE AMINOTRANSFERASE [3]: 28 u/L | ALBUMIN [3]: 3.4 G/DL | ALKALINE PHOSPHATASE [3]: 270.33 u/L | ASPARTATE AMINOTRANSFERASE [3]: 46.67 u/L | BLOOD UREA NITROGEN [3]: 9 mg/dL | CHLORIDE [3]: 102.33 MEQ/L | CHOLESTEROL [3]: 55.33 mg/dL | CREATINE PHOSPHOKINASE [3]: 104.33 u/L | CREATININE [3]: 0.4 mg/dL | GLUCOSE [3]: 165 mg/dL | PHOSPHORUS [3]: 10.73 mg/dL | POTASSIUM [3]: 6.07 MEQ/L | SODIUM [3]: 148 MEQ/L | TOTAL BILIRUBIN [3]: 0.17 mg/dL | TOTAL PROTEIN [3]: 5.43 G/DL
